The source of these data is US12502434B2, “Compound comprising EZH2 inhibitor and E3 ligase binder and pharmaceutical composition for preventing or treating EZH2-associated disease comprising same as active ingredient” (DAEGU-GYEONGBUK MEDICAL INNOVATION FOUNDATION, priority 2019, dated 2025).

Each structure is given as a SMILES string. Where two headings read alike, the source gives them in different places.

This assay deals with T1, EZH2 protein in LS174T cells (Homo sapiens, UniProt Q15910).
T1 construct: endogenous in cells; host or cells: LS174T
T1 sequence (Q15910 whole entry): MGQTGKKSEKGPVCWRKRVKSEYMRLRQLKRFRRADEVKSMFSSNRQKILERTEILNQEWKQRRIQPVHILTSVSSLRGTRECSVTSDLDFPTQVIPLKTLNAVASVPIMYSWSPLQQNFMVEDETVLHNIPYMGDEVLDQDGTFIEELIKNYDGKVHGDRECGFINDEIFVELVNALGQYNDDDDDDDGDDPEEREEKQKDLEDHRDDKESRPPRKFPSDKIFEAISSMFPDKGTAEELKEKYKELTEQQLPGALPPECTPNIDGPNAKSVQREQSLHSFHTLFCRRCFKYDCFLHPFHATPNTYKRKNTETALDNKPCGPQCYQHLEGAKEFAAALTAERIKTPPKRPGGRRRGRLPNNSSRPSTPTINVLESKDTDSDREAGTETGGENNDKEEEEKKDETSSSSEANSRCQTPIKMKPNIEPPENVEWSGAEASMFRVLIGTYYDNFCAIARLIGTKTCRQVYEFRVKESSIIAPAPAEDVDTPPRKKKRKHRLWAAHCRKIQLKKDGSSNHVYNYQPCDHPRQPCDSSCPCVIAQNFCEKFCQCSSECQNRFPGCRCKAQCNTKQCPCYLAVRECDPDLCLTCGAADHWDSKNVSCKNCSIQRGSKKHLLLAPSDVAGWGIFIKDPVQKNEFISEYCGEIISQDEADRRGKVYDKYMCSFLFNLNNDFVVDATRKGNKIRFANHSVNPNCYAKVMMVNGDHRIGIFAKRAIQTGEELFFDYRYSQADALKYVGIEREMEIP
T1 sequence (O75530 whole entry partner): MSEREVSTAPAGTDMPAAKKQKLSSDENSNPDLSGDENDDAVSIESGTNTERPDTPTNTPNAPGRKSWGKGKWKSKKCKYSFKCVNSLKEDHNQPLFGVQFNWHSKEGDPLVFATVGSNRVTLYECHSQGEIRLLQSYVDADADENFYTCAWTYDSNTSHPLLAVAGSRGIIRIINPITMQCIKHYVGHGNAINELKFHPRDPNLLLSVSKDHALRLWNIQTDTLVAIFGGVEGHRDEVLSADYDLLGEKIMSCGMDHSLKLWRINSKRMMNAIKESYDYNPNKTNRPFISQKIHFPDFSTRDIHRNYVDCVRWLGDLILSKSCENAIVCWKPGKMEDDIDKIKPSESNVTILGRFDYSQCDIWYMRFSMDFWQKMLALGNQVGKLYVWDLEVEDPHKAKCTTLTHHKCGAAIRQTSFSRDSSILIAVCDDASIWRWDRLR
T1 sequence (Q15022 whole entry partner): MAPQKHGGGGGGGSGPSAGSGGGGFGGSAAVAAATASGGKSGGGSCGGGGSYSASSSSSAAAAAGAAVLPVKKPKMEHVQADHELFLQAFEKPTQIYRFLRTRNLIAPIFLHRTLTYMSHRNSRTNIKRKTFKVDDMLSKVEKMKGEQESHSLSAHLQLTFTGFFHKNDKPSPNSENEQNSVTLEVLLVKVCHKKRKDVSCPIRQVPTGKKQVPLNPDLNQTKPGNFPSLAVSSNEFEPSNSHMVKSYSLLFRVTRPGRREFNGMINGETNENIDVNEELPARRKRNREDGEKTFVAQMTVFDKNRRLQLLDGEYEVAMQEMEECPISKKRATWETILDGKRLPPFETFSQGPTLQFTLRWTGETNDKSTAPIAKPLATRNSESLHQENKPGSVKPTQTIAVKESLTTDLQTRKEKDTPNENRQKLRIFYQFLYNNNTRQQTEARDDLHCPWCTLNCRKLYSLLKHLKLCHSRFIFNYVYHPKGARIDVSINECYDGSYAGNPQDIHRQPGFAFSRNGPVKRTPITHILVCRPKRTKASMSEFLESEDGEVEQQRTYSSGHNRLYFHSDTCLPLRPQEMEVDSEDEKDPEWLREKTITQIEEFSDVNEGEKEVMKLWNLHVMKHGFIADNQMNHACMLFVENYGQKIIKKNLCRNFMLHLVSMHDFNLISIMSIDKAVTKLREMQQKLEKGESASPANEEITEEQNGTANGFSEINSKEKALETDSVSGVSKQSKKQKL
Put plainly: Proteolytic effect in colorectal cancer cells (Western blotting). Type of assay: cell-based. The procedure:
After 72 hours of the treatment, the cells were collected and lysed using RIPA buffer (50 mM Tris, pH 7.5, 150 mM NaCl, 1% Triton X-100, 0.1% SDS, […], 0.5% deoxycholate, and protease inhibitor cocktail), followed by sonication (30 sec on/30 sec off, 5 cycles) to prepare a cell lysate.

Setting [1] is: EZH2 protein, LS174T cells, 1 μM, 72 hours.
[2] abbreviates: EZH2 protein, LS174T cells, 1 uM, 72 hours, Western blotting.

For the compound `CCN(c1cc(-c2ccc(CN3CCN(CC(=O)N4CC5(CN(CCCCNc6cccc7c6C(=O)N(C6CCC(=O)NC6=O)C7=O)C5)C4)CC3)cc2)cc(C(=O)NCc2c(C)cc(C)[nH]c2=O)c1C)C1CCOCC1` (stereo not shown) [Example 35, N-((4,6-dimethyl-2-oxo-1,2-dihydropyridine-3-yl)methyl)-4′-((4-(2-(6-(4-((2-(2,6-dioxopiperidine-3-yl)-1,3-dioxoisoindoline-4-yl)amino)butyl)-2,6-diazaspiro[3.3]heptane-2-yl)-2-oxoethyl)piperazine-1-yl)methyl)-5-(ethyl(tetrahydro-2H-pyran-4-yl)amino)-4-methyl-[1,1′-biphenyl]-3-carboxamide], the “Grade (percent value of the protein degradation when treated with 1 μM)” value under setting [1] was “D (<25%)”. Moreover, under setting [2], the “%, degradation at 1 uM” value turned out to be 0%.

Take `CCN(c1cc(-c2ccc(CN3CCN(CCCCCCCNc4cccc5c4C(=O)N(C4CCC(=O)NC4=O)C5=O)CC3)cc2)cc(C(=O)NCc2c(C)cc(C)[nH]c2=O)c1C)C1CCOCC1` (stereo not shown) [Example 11, N-((4,6-dimethyl-2-oxo-1,2-dihydropyridine-3-yl)methyl)-4′-((4-(7-((2-(2,6-dioxopiperidine-3-yl)-1,3-dioxoisoindoline-4-yl)amino)heptyl)piperazine-1-yl)methyl)-5-(ethyl(tetrahydro-2H-pyran-4-yl)amino)-4-methyl-[1,1′-biphenyl]-3-carboxamide]: the “Grade (percent value of the protein degradation when treated with 1 μM)” value under setting [1] is given as “D (<25%)”. For the same compound, the “%, degradation at 1 uM” value under setting [2] is 12.87%.

For the compound `CCN(c1cc(-c2ccc(CN3CCN(CC(=O)NCCCOCCOc4cccc5c4C(=O)N(C4CCC(=O)NC4=O)C5=O)CC3)cc2)cc(C(=O)NCc2c(C)cc(C)[nH]c2=O)c1C)C1CCOCC1` (stereo not shown) [Example 17, N-((4,6-dimethyl-2-oxo-1,2-dihydropyridine-3-yl)methyl)-4′-((4-(2-((3-(2-((2-(2,6-dioxopiperidine-3-yl)-1,3-dioxoisoindoline-4-yl)oxy)ethoxy)propyl)amino)-2-oxoethyl)piperazine-1-yl)methyl)-5-(ethyl(tetrahydro-2H-pyran-4-yl)amino)-4-methyl-[1,1′-biphenyl]-3-carboxamide], the “%, degradation at 1 uM” value stood at 3.25% and the “Grade (percent value of the protein degradation when treated with 1 μM)” value is reported as “D (key: A: >75%; B: 50-75%; C: 25-50%; D: <25%)”.

For the compound `CCN(c1cc(-c2ccc(CN3CCN(CC(=O)NCCOCCCOc4cccc5c4C(=O)N(C4CCC(=O)NC4=O)C5=O)CC3)cc2)cc(C(=O)NCc2c(C)cc(C)[nH]c2=O)c1C)C1CCOCC1` (stereo not shown) [Example 18, N-((4,6-dimethyl-2-oxo-1,2-dihydropyridine-3-yl)methyl)-4′-((4-(2-((2-(3-((2-(2,6-dioxopiperidine-3-yl)-1,3-dioxoisoindoline-4-yl)oxy)propoxy)ethyl)amino)-2-oxoethyl)piperazine-1-yl)methyl)-5-(ethyl(tetrahydro-2H-pyran-4-yl)amino)-4-methyl-[1,1′-biphenyl]-3-carboxamide], the “Grade (percent value of the protein degradation when treated with 1 μM)” value under setting [1] was “D (<25%)”. Besides, the “%, degradation at 1 uM” value under setting [2] worked out at 16.74%.

For `CCN(c1cc(-c2ccc(CN3CCN(CC(=O)NCCCCCCN[C@H](C(=O)N4C[C@H](O)C[C@H]4C(=O)NCc4ccc(-c5scnc5C)cc4)C(C)(C)C)CC3)cc2)cc(C(=O)NCc2c(C)cc(C)[nH]c2=O)c1C)C1CCOCC1` [Example 38, (2S,4R)-1-((S)-2-((6-(2-(4-((3′-(((4,6-dimethyl-2-oxo-1,2-dihydropyridine-3-yl)methyl)carbamoyl)-5′-(ethyl(tetrahydro-2H-pyran-4-yl)amino)-4′-methyl-[1,1′-biphenyl]-4-yl)methyl)piperazine-1-yl)acetamido)hexyl)amino)-3,3-dimethylbutanoyl)-4-hydroxy-N-(4-(4-methylthiazole-5-yl)benzyl)pyrrolidine-2-carboxamide], the “Grade (percent value of the protein degradation when treated with 1 μM)” value under setting [1] is recorded as “D (<25%)”. In addition, the “%, degradation at 1 uM” value under setting [2] amounted to 9.97%.

For `CCN(c1cc(-c2ccc(CN3CCN(CC(=O)NCCCCCCNc4cccc5c4C(=O)N(C4CCC(=O)NC4=O)C5=O)CC3)cc2)cc(C(=O)NCc2c(C)cc(C)[nH]c2=O)c1C)C1CCOCC1` (stereo not shown) [Example 6, N-((4,6-dimethyl-2-oxo-1,2-dihydropyridine-3-yl)methyl)-4′-((4-(2-((6-((2-(2,6-dioxopiperidine-3-yl)-1,3-dioxoisoindoline-4-yl)amino)hexyl)amino)-2-oxoethyl)piperazine-1-yl)methyl)-5-(ethyl(tetrahydro-2H-pyran-4-yl)amino)-4-methyl-[1,1′-biphenyl]-3-carboxamide], the “Grade (percent value of the protein degradation when treated with 1 μM)” value under setting [1] is reported as “B (50-75%)”. Besides, the “%, degradation at 1 uM” value under setting [2] is recorded as 61.64%.

For `CCN(c1cc(-c2ccc(CN3CCN(CC(=O)NCCCCCOCCCOCC(=O)Nc4cccc5c4CN(C4CCC(=O)NC4=O)C5=O)CC3)cc2)cc(C(=O)NCc2c(C)cc(C)[nH]c2=O)c1C)C1CCOCC1` (stereo not shown) [Example 27, N-((4,6-dimethyl-2-oxo-1,2-dihydropyridine-3-yl)methyl)-4′-((4-(2-((5-(3-(2-((2-(2,6-dioxopiperidine-3-yl)-1-oxoisoindoline-4-yl)amino)-2-oxoethoxy)propoxy)pentyl)amino)-2-oxoethyl)piperazine-1-yl)methyl)-5-(ethyl(tetrahydro-2H-pyran-4-yl)amino)-4-methyl-[1,1′-biphenyl]-3-carboxamide], the “Grade (percent value of the protein degradation when treated with 1 μM)” value under setting [1] is recorded as “D (<25%)”. In addition, the “%, degradation at 1 uM” value under setting [2] came out at 2.27%.

Consider `CCN(c1cc(-c2ccc(CN3CCN(C(=O)CNCCNc4cccc5c4C(=O)N(C4CCC(=O)NC4=O)C5=O)CC3)cc2)cc(C(=O)NCc2c(C)cc(C)[nH]c2=O)c1C)C1CCOCC1` (stereo not shown) [Example 12, N-((4,6-dimethyl-2-oxo-1,2-dihydropyridine-3-yl)methyl)-4′-((4-((2-((2-(2,6-dioxopiperidine-3-yl)-1,3-dioxoisoindoline-4-yl)amino)ethyl)glycyl)piperazine-1-yl)methyl)-5-(ethyl(tetrahydro-2H-pyran-4-yl)amino)-4-methyl-[1,1′-biphenyl]-3-carboxamide], for which the “Grade (percent value of the protein degradation when treated with 1 μM)” value under setting [1] was “D (<25%)”. In addition, under setting [2], the “%, degradation at 1 uM” value was found to be 16.89%.

As for `CCN(c1cc(-c2ccc(CN3CCN(C(=O)c4cn(CCCCC(=O)N[C@H](C(=O)N5C[C@H](O)C[C@H]5C(=O)NCc5ccc(-c6scnc6C)cc5)C(C)(C)C)nn4)CC3)cc2)cc(C(=O)NCc2c(C)cc(C)[nH]c2=O)c1C)C1CCOCC1` [Example 48, (2S,4R)-1-((S)-2-(5-(4-(4-((3′-(((4,6-dimethyl-2-oxo-1,2-dihydropyridine-3-yl)methyl)carbamoyl)-5′-(ethyl(tetrahydro-2H-pyran-4-yl)amino)-4′-methyl-[1,1′-biphenyl]-4-yl)methyl)piperazine-1-carbonyl)-1H-1,2,3-triazole-1-yl)pentanamido)-3,3-dimethylbutanoyl)-4-hydroxy-N-(4-(4-methylthiazole-5-yl)benzyl)pyrrolidine-2-carboxamide], under setting [1], the “Grade (percent value of the protein degradation when treated with 1 μM)” value is listed as “D (<25%)”. Under setting [2], the “%, degradation at 1 uM” value was 5.74%. For the same compound, the “effect of degrading EZH2 protein when treated to colorectal cancer cells (in words)” value (LS174T cells) was “excellent effects”.

In the case of `CCN(c1cc(-c2ccc(CN3CCN(CCOCCCCCCNc4cccc5c4C(=O)N(C4CCC(=O)NC4=O)C5=O)CC3)cc2)cc(C(=O)NCc2c(C)cc(C)[nH]c2=O)c1C)C1CCOCC1` (stereo not shown) [Example 19, N-((4,6-dimethyl-2-oxo-1,2-dihydropyridine-3-yl)methyl)-4′-((4-(2-((6-((2-(2,6-dioxopiperidine-3-yl)-1,3-dioxoisoindoline-4-yl)amino)hexyl)oxy)ethyl)piperazine-1-yl)methyl)-5-(ethyl(tetrahydro-2H-pyran-4-yl)amino)-4-methyl-[1,1′-biphenyl]-3-carboxamide], the “Grade (percent value of the protein degradation when treated with 1 μM)” value under setting [1] was “D (<25%)”. For the same compound, under setting [2], the “%, degradation at 1 uM” value is recorded as 9.07%.

As to `CCN(c1cc(-c2ccc(CN3CCN(Cc4cn(CCCNc5cccc6c5C(=O)N(C5CCC(=O)NC5=O)C6=O)nn4)CC3)cc2)cc(C(=O)NCc2c(C)cc(C)[nH]c2=O)c1C)C1CCOCC1` (stereo not shown) [Example 23, N-((4,6-dimethyl-2-oxo-1,2-dihydropyridine-3-yl)methyl)-4′-((4-((1-(3-((2-(2,6-dioxopiperidine-3-yl)-1,3-dioxoisoindoline-4-yl)amino)propyl)-1H-1,2,3-triazole-4-yl)methyl)piperazine-1-yl)methyl)-5-(ethyl(tetrahydro-2H-pyran-4-yl)amino)-4-methyl-[1,1′-biphenyl]-3-carboxamide], under setting [1], the “Grade (percent value of the protein degradation when treated with 1 μM)” value is “D (<25%)”. Also, under setting [2], the “%, degradation at 1 uM” value is on record as 1.52%.

For the compound `CCN(c1cc(-c2ccc(CN3CCN(C(=O)c4cn(CCC(=O)N[C@H](C(=O)N5C[C@H](O)C[C@H]5C(=O)NCc5ccc(-c6scnc6C)cc5)C(C)(C)C)nn4)CC3)cc2)cc(C(=O)NCc2c(C)cc(C)[nH]c2=O)c1C)C1CCOCC1` [Example 47, (2S,4R)-1-((S)-2-(3-(4-(4-((3′-(((4,6-dimethyl-2-oxo-1,2-dihydropyridine-3-yl)methyl)carbamoyl)-5′-(ethyl(tetrahydro-2H-pyran-4-yl)amino)-4′-methyl-[1,1′-biphenyl]-4-yl)methyl)piperazine-1-carbonyl)-1H-1,2,3-triazole-1-yl)propanamido)-3,3-dimethylbutanoyl)-4-hydroxy-N-(4-(4-methylthiazole-5-yl)benzyl)pyrrolidine-2-carboxamide], under setting [1], the “Grade (percent value of the protein degradation when treated with 1 μM)” value is listed as “D (<25%)”. Besides, under setting [2], the “%, degradation at 1 uM” value worked out at 0%.
